Reference: PMC9636434, “Discovery of small molecule agonists of the Relaxin Family Peptide Receptor 2” (Communications Biology, 2022)
Values joined by “and” are separate entries in the source; they are usually repeats but may differ in a detail not shown here. Identical values can stand only once. Like-named read-outs stand apart in the source and are kept apart here.

Columns and labels:
HCO cells = assay: CellTiter-Glo cytotoxicity assay in HCO cells; format: cell-based, human; details: experiments (1)-(3)
Text: Fig. 4 RXFP2 agonists induce mineralization of primary human osteoblasts and are non-cytotoxic. a Mineral hydroxyapatite fluorescent quantification after 14-day treatment in HCO cells. Results were normalized to control DMSO as 100% mineralization. b HCO and c HAVSMC toxicity after 24-h treatment with RXFP2 agonists, normalized to DMSO treatment as 0% toxicity. Results are expressed as mean ± SEM of 3 independent experiments. *p < 0.05, *** p < 0.001 vs. DMSO using One-way ANOVA.
Cell viability studies were undertaken to identify potential cytotoxic effects of the RXFP2 agonists. HCO cells and human aortic vascular smooth muscle cells (HAVSMC) were treated for 24 h. […] At 8.3 µM and below, no toxicity was found in HCO cells and toxicity was below 20% in HAVSMC cells for all three compounds (Fig. 4b, c).
The ATP CellTiter-Glo Luminescent Cell Viability Assay (Promega, Madison, WI) was used to measure cytotoxicity induced by the compounds in HCO cells and human aortic vascular smooth muscle cells (HAVSMC) (ATCC, Manassas, VA). HCO and HAVSMC cells were seeded in 96-well plates at 3000 and 7000 cells per well respectively. Cells were incubated overnight, treated with compound or DMSO vehicle and incubated for 24 h at 37 °C, 5% CO2. […] Plates were shaken for 2 min, incubated at room temperature for 10 min and the luminescent signal was read on a CLARIOstar plate reader.

human PTHR1 = molecular target: T1, human PTHR1 (Homo sapiens, UniProt Q03431); assay: HitHunter cAMP XS+ assay, cAMP Hunter cell line PTHR1; format: cell-based; details: for RLU: replicates (1),(2)
T1 sequence (Q03431 27-593): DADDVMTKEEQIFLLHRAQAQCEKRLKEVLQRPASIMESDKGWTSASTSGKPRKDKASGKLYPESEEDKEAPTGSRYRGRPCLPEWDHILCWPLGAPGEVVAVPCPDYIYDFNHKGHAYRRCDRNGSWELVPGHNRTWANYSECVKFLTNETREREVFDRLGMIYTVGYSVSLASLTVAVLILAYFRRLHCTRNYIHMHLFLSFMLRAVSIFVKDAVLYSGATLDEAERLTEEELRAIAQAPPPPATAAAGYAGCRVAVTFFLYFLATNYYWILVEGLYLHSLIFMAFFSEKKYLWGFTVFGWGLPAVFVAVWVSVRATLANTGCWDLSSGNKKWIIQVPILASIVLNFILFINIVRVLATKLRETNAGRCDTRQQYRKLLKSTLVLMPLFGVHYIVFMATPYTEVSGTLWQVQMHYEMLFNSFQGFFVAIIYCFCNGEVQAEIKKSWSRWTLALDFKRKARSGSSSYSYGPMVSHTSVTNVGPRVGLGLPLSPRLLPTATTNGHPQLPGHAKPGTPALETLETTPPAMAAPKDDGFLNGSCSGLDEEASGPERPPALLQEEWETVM
Text: Results are reported as raw RLU values and represent the
mean ± SEM of 2 technical replicates.

[1] = 10 mg/kg PO 3 times per week, 8 weeks

## O=C1Nc2ccc(-c3cc(C(F)(F)F)cc(C(F)(F)F)c3)cc2C(=O)N2CCN(C(=O)COc3ccc(OC(F)(F)F)cc3I)C[C@@H]12 [compound 6641]
HCO cells; Log [M] -6.03, 24 h
  % Tox: -11.63% and -7.45% and -4.96%
HCO cells; Log [M] -6.51, 24 h
  % Tox: -9.76% and -5.09% and -6.71%
[1]
  body or organ (liver, kidney) weight vs vehicle: No changes
  histological analysis of livers and kidneys: did not show any changes in cell morphology
Left Kidney, after 8-week oral treatment, individual mice
  Left Kidney weight: 0.4912 and 0.4654 and 0.4705 and 0.5626 and 0.5314 and 0.5304 and 0.5976 and 0.5317 and 0.5347 and 0.5015 and 0.5707 and 0.5055 and 0.4688 and 0.4947 and 0.545
Liver, after 8-week oral treatment, individual mice
  Liver weight: 4.014 and 3.487 and 3.8235 and 3.754 and 3.582 and 3.355 and 4.71 and 3.617 and 3.875 and 3.519 and 3.904 and 3.698 and 3.86 and 3.544 and 3.928
Right Kidney, after 8-week oral treatment, individual mice
  Right Kidney weight: 0.5699 and 0.5019 and 0.5734 (2×) and 0.5889 and 0.5665 and 0.5265 and 0.5931 and 0.5579 and 0.5793 and 0.6089 and 0.5717 and 0.4908 and 0.5191 and 0.5352
Day 18, individual mice
  Body weight: 19.85 g and 17.73 g and 17.98 g and 16.95 g and 18.38 g and 18.83 g and 21.28 g and 19.38 g and 20.27 g and 20.03 g and 16.32 g and 20.68 g and 19.45 g and 18.87 g and 17.54 g
Day 21, individual mice
  Body weight: 19.93 g and 18.04 g and 17.94 g and 17.08 g and 17.98 g and 19.29 g and 21.67 g and 19.33 g and 20.02 g and 19.71 g and 16.43 g and 21.48 g and 19.84 g and 19.3 g and 18.07 g
Day 25, individual mice
  Body weight: 20.1 g and 18.01 g and 17.55 g and 16.7 g and 18.33 g and 19.06 g and 21.44 g and 20.16 g and 20.44 g and 20.28 g and 16.93 g and 21.61 g and 19.73 g and 19.34 g and 18.63 g
Day 28, individual mice
  Body weight: 19.97 g and 17.83 g and 17.52 g and 17.01 g and 18.4 g and 18.9 g and 22.31 g and 19.96 g and 21.2 g and 20.35 g and 17.55 g and 21.63 g and 20.55 g and 19.62 g and 18.84 g
Day 32, individual mice
  Body weight: 20.73 g and 18.54 g and 18.23 g and 16.58 g and 19.25 g and 19.78 g and 22.35 g and 20.74 g (2×) and 21.45 g and 17.18 g and 20.72 g and 20.18 g and 19.42 g and 18.61 g
Day 35, individual mice
  Body weight: 20.28 g and 18.14 g and 18.03 g and 17.15 g and 19.17 g and 19.71 g and 22.83 g and 20.57 g and 20.92 g and 19.8 g and 17.11 g and 22.36 g and 20.66 g and 20.25 g and 18.8 g
Day 39, individual mice
  Body weight: 20.17 g and 18.1 g and 17.93 g and 17.63 g and 19.64 g and 20.24 g and 22.43 g and 20.72 g and 21.92 g and 20.95 g
Human PTHR1; Hit Hunter cAMP assay
  cAMP response through PTHR1: does not activate
Human PTHR1; Log [M] -4.70
  RLU: 1080 RLU
Human PTHR1; Log [M] -5.18
  RLU: 1000 RLU
Human PTHR1; Log [M] -5.65
  RLU: 960 RLU
Human PTHR1; Log [M] -6.13
  RLU: 1040 RLU
Human PTHR1; Log [M] -6.61
  RLU: 920 RLU and 960 RLU
Human PTHR1; Log [M] -7.08
  RLU: 1200 RLU and 1040 RLU
Human PTHR1; Log [M] -7.56
  RLU: 1000 RLU and 880 RLU
Human PTHR1; Log [M] -8.04
  RLU: 1000 RLU and 920 RLU
Human PTHR1; Log [M] -8.52
  RLU: 920 RLU and 1000 RLU
Human PTHR1; Log [M] -8.99
  RLU: 800 RLU
